Our source for the inhibition and Kp values is US20120245154A1, “SUBSTITUTED AMINOTHIAZINE DERIVATIVE” (SHIONOGI & CO., LTD., priority 2009, published 2012).

One data set concerns the target T1, hERG channel (IKr) (Homo sapiens, UniProt Q12809).
T1 construct: expressed in transfected cells; host or cells: HEK293
Description: hERG test. It is filed as cell-based. The conditions noted are these: HEK293 cells expressing hERG channel, pH 7.4, whole cell patch clamp, concentration not given, read-out: % inhibition relative to the tail peak current (IKr). The source says:
For the purpose of assessing risk of an electrocardiogram QT interval prolongation, effects on delayed rectifier K+ current (IKr), which plays an important role in the ventricular repolarization process, was studied using HEK293 cells expressing human ether-a-go-go related gene (hERG) channel.
After a cell was retained at a membrane potential of −80 mV by whole cell patch clamp method using an automated patch clamp system (PatchXpress 7000A, Axon Instruments Inc.), IKr induced by depolarization pulse stimulation at +50 mV for 2 seconds and, further, repolarization pulse stimulation at −50 mV for 2 seconds was recorded. […] From the recording IKr, an absolute value of the tail peak current was measured based on the current value at the resting membrane potential using an analysis software (DataXpress vet.1, Molecular Devices Corporation). Further, the % inhibition relative to the tail peak current before application of the test substance was calculated, and compared with the vehicle-applied group (0.1% dimethyl sulfoxide solution) to assess influence of the test substance on IKr.

Data set [1] in a line: Brain distribution studies. The format is in vivo. The conditions noted are these: brain/plasma, iv; rat, intravenously 0.5 mg/mL/kg, 30 minutes later; read-out: brain Kp value (area ratio brain/plasma). The method, then:
Compound of the present invention was intravenously administered to a rat at 0.5 mg/mL/kg dosage. […] The brain was enucleated and 20-25% of homogenate thereof was prepared with distilled water. The obtained blood was used as plasma after centrifuging. To the brain sample was added the control plasma at 1:1. To the plasma samples was added the control brains at 1:1. Each sample was measured using LC/MS/MS. The obtained area ratio (a brain/plasma) was used for the brain Kp value.

Molecules are shown by their SMILES.

T1 sequence (Q12809 whole entry): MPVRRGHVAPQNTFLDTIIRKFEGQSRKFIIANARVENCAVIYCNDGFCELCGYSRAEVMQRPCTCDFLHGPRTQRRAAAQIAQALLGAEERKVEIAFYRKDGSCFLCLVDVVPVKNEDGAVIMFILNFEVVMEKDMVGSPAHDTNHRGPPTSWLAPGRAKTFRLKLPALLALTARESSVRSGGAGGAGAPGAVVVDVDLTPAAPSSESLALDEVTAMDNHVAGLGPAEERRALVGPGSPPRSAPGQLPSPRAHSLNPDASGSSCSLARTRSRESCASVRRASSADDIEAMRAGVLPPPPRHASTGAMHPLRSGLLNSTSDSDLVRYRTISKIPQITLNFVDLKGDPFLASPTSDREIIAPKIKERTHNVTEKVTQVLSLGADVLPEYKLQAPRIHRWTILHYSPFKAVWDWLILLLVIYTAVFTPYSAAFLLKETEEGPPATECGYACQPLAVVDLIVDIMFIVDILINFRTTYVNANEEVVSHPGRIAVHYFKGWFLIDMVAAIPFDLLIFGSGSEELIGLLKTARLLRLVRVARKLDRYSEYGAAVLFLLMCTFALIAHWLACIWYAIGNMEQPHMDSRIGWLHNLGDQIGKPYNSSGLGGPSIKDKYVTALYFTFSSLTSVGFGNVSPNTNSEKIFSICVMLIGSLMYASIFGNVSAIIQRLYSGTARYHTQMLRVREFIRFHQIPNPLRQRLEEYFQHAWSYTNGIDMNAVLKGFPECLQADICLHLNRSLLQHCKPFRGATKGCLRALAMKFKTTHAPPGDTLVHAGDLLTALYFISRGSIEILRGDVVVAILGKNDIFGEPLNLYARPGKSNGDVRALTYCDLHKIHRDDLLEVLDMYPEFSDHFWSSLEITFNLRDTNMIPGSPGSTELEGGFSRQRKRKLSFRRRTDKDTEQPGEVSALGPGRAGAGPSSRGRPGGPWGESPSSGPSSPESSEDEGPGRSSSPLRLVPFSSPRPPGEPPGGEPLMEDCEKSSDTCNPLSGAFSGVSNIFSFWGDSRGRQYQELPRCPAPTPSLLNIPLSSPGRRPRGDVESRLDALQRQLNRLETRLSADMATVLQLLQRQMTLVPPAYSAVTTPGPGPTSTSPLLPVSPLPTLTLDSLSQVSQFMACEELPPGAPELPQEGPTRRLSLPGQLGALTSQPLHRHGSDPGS

`Cc1cnc(C(=O)Nc2ccc(F)c([C@]3(C)C=C(C(F)F)SC(N)=N3)c2)cn1` [Compound I-14]: the inhibition at 10 min at hERG channel (IKr) was 3.8%.

As for `CC(C)C1=C[C@@](C)(c2cc(NC(=O)c3ccc(C#N)cn3)ccc2F)N=C(N)S1` [Compound I-54], the Kp at 0.5 h in data set [1] came to 2.5.

In general, inhibition refers to the change of the read-out against control, counted positive when it falls.
